Results: the supplement of paper PMC10307832

Assays:
Assay in all cases: relative viability (nuclei count vs DMSO), 5 days (fraction); higher = more cells survive
[1] = compound: CN[C@@H]1C[C@H]2O[C@@](C)([C@@H]1OC)n1c3ccccc3c3c4c(c5c6ccccc6n2c5c31)C(=O)NC4 [Staurosporine] + N=C(N)NC(=N)NCCc1ccccc1 [Phenformin] (partner 250 µM)
Method in brief: (§1)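 Relative viability equals treated-well nuclei counts divided by vehicle-well nuclei counts. Counts came from 4× images of lung cancer cell lines grown in 1536-well plates for 5 days after pin-tool dosing on the day after seeding. Dosing used one drug alone or a fixed anchor-drug dose plus five library-drug doses (not always all listed) in √10 steps, and values are medians of duplicate plates.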

Sulindac + Olaparib = compound: CC1=C(CC(=O)O)c2cc(F)ccc2/C1=C\c1ccc([S+](C)[O-])cc1 [Sulindac] + O=C(c1cc(Cc2n[nH]c(=O)c3ccccc23)ccc1F)N1CCN(C(=O)C2CC2)CC1 [Olaparib] (partner 8 µM)
Method in brief: as §1

Staurosporine + Olaparib = compound: CN[C@@H]1C[C@H]2O[C@@](C)([C@@H]1OC)n1c3ccccc3c3c4c(c5c6ccccc6n2c5c31)C(=O)NC4 [Staurosporine] + O=C(c1cc(Cc2n[nH]c(=O)c3ccccc23)ccc1F)N1CCN(C(=O)C2CC2)CC1 [Olaparib] (partner 8 µM)
Method in brief: as §1

[2] = compound: CN[C@@H]1C[C@H]2O[C@@](C)([C@@H]1OC)n1c3ccccc3c3c4c(c5c6ccccc6n2c5c31)C(=O)NC4 [Staurosporine] + Nc1nc2[nH]cc(CCc3ccc(C(=O)N[C@@H](CCC(=O)O)C(=O)O)cc3)c2c(=O)[nH]1 [Pemetrexed] (partner 0.2 µM)
Method in brief: as §1

Cell Line | relative viability ([1]; first compound 0.005 µM) | relative viability ([1]; first compound 0.05 µM) | relative viability ([1]; first compound 0.1581 µM) | relative viability ([1]; first compound 0.5 µM) | relative viability (Sulindac + Olaparib; first compound 0.08 µM) | relative viability (Sulindac + Olaparib; first compound 0.253 µM) | relative viability (Sulindac + Olaparib; first compound 0.8 µM) | relative viability (Sulindac + Olaparib; first compound 2.53 µM) | relative viability (Sulindac + Olaparib; first compound 8 µM) | relative viability (Staurosporine + Olaparib; first compound 0.005 µM) | relative viability (Staurosporine + Olaparib; first compound 0.01581 µM) | relative viability (Staurosporine + Olaparib; first compound 0.05 µM) | relative viability (Staurosporine + Olaparib; first compound 0.1581 µM) | relative viability (Staurosporine + Olaparib; first compound 0.5 µM) | relative viability ([2]; first compound 0.005 µM) | relative viability ([2]; first compound 0.01581 µM) | relative viability ([2]; first compound 0.05 µM) | relative viability ([2]; first compound 0.1581 µM) | relative viability ([2]; first compound 0.5 µM) | relative viability ([1]; first compound 0.01581 µM)
NCI-H522 | 0.783 | 0.594 | 0.41 | 0.405 | 0.694 | 0.735 | 0.558 | 0.633 | 0.61 | 0.669 | 0.685 | 0.53 | 0.471 | 0.429 | 1.08 | 0.7 | 0.847 | 0.742 | 0.579 | 
NCI-H1944 | 0.19 | 0.141 | 0.102 | 0.0775 | 0.433 | 0.404 | 0.302 | 0.438 | 0.42 | 0.38 | 0.226 | 0.284 | 0.273 | 0.261 | 0.626 | 0.311 | 0.26 | 0.164 | 0.185 | 0.11
PC-14 | 0.26 | 0.0894 | 0.0651 | 0.0636 | 0.271 | 0.321 | 0.272 | 0.209 | 0.272 | 0.147 | 0.0797 | 0.042 | 0.0556 | 0.043 | 0.159 | 0.131 | 0.0585 | 0.0487 | 0.048 | 0.129
NCI-H1650 | 0.217 | 0.109 | 0.108 | 0.0714 | 0.827 | 0.723 | 0.705 | 0.742 | 0.757 | 0.703 | 0.598 | 0.385 | 0.306 | 0.0918 | 0.325 | 0.239 | 0.209 | 0.23 | 0.104 | 0.147
HCC-827 | 0.43 | 0.214 | 0.167 |  | 0.636 | 0.683 | 0.573 | 0.659 | 0.734 | 0.666 | 0.5 | 0.467 | 0.322 | 0.22 | 0.266 | 0.278 | 0.246 | 0.171 | 0.154 | 0.35
HCC-366 | 0.708 | 0.519 | 0.283 | 0.0201 | 0.338 | 0.356 |  | 0.399 | 0.508 | 0.247 |  | 0.12 | 0.0287 | 0.0185 | 0.133 |  | 0.0702 | 0.0274 | 0.0293 | 
HARA | 0.374 | 0.211 | 0.133 | 0.0495 | 0.737 | 0.935 | 1 | 0.731 | 0.955 | 0.682 | 0.363 | 0.156 | 0.126 | 0.131 | 0.195 | 0.167 | 0.134 | 0.138 | 0.168 | 
NCI-H441 | 0.817 | 0.246 | 0.202 | 0.102 | 0.514 | 0.537 | 0.442 | 0.476 | 0.624 | 0.352 | 0.319 | 0.205 | 0.176 | 0.115 | 0.246 | 0.203 | 0.177 | 0.157 | 0.147 | 0.259
LXF-289 | 0.325 | 0.172 | 0.0511 | 0.0502 | 1.24 | 1.18 | 0.873 | 1.18 | 1.19 | 1.1 | 0.193 | 0.395 | 0.164 | 0.227 | 0.812 | 0.182 | 0.307 | 0.0978 | 0.159 | 0.0737
A549 | 0.127 | 0.0465 | 0.031 | 0.0233 | 0.468 | 0.303 |  | 0.331 | 0.352 | 0.0788 | 0.0424 | 0.126 | 0.034 | 0.0268 |  |  |  |  |  | 0.025
NCI-H1648 |  |  |  |  | 1.38 | 0.827 |  | 0.997 | 0.695 | 0.893 | 0.376 | 0.311 | 0.257 | 0.259 | 0.582 | 0.321 | 0.344 | 0.325 | 0.42 | 
NCI-H1623 | 0.574 | 0.631 | 0.59 | 0.306 |  |  |  |  |  |  |  |  |  |  |  |  |  |  |  | 0.578
Calu-6 |  |  |  |  | 0.618 | 0.624 | 0.449 | 0.531 | 0.711 | 0.483 | 0.294 | 0.201 | 0.106 | 0.092 |  |  |  |  |  | 
NCI-H1563 | 0.566 | 0.577 | 0.506 | 0.416 |  |  |  |  |  |  |  |  |  |  | 0.543 | 0.39 | 0.522 | 0.45 | 0.41 | 0.533
NCI-H1299 |  |  |  |  | 0.98 | 1.04 | 0.889 | 0.962 | 1.03 | 0.493 | 0.263 | 0.251 | 0.117 |  |  |  |  |  |  | 
NCI-H727 | 0.404 | 0.379 | 0.219 | 0.146 | 0.588 | 0.519 | 0.648 | 0.769 | 0.707 | 0.638 | 0.422 | 0.413 | 0.434 | 0.419 |  |  |  |  |  | 0.319
NCI-H1703 |  |  |  |  | 0.39 | 0.526 | 0.404 | 0.529 | 0.554 | 0.269 | 0.165 | 0.237 | 0.112 | 0.106 |  |  |  |  |  | 
EBC-1 |  |  |  |  | 0.846 | 0.643 | 0.545 | 0.748 | 0.816 | 0.485 | 0.184 | 0.165 | 0.159 | 0.149 |  |  |  |  |  | 
IA-LM |  |  |  |  | 0.932 | 0.925 |  | 0.953 | 0.881 | 0.562 | 0.51 | 0.412 | 0.215 | 0.0689 |  |  |  |  |  | 
ABC-1 | 0.169 | 0.0951 | 0.0728 | 0.105 | 1.1 | 0.611 | 0.769 | 0.591 | 0.601 | 0.429 | 0.289 | 0.564 | 0.211 | 0.213 |  |  |  |  |  | 0.205
